System: P12-Ichikawa
Assay: cell viability relative to DMSO control; higher = less cytotoxic
Conditions: 48 h
Procedure, shortened: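 Leukemia cells (NOMO1 or SEM, 500 cells/well; P12-Ichikawa, 1000 cells/well) were seeded in 5 μl in 1536-well plates after at least four passages of adaptation to each medium. They received library compounds in DMSO by pin dosing, 11 threefold points from 47 μM to 0.79 nM. Luminescence with CellTiter-Glo One was read after 48 h at 37°C. Viability is stated per plate relative to DMSO wells, with cell-free wells as background.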

[1] = HPLM + 10% dialyzed FBS, 0.000781 µM
[2] = HPLM + 10% dialyzed FBS, 0.00234 µM
[3] = HPLM + 10% dialyzed FBS, 0.00702 µM
[4] = HPLM + 10% dialyzed FBS, 0.0211 µM
[5] = HPLM + 10% dialyzed FBS, 0.0632 µM
[6] = HPLM + 10% dialyzed FBS, 0.19 µM
[7] = HPLM + 10% dialyzed FBS, 0.569 µM
[8] = HPLM + 10% dialyzed FBS, 1.71 µM
[9] = HPLM + 10% dialyzed FBS, 5.12 µM
[10] = HPLM + 10% dialyzed FBS, 15.4 µM
[11] = HPLM + 10% dialyzed FBS, 46.1 µM
[12] = RPMI 5 mM glucose + 10% FBS, 0.000781 µM
[13] = RPMI 5 mM glucose + 10% FBS, 0.00234 µM
[14] = RPMI 5 mM glucose + 10% FBS, 0.00702 µM
[15] = RPMI 5 mM glucose + 10% FBS, 0.0211 µM
[16] = RPMI 5 mM glucose + 10% FBS, 0.0632 µM
[17] = RPMI 5 mM glucose + 10% FBS, 0.19 µM
[18] = RPMI 5 mM glucose + 10% FBS, 0.569 µM
[19] = RPMI 5 mM glucose + 10% FBS, 1.71 µM
[20] = RPMI 5 mM glucose + 10% FBS, 5.12 µM
[21] = RPMI 5 mM glucose + 10% FBS, 15.4 µM
[22] = RPMI 5 mM glucose + 10% FBS, 46.1 µM
[23] = RPMI 5 mM glucose + 10% dialyzed FBS, 0.000781 µM
[24] = RPMI 5 mM glucose + 10% dialyzed FBS, 0.00234 µM
[25] = RPMI 5 mM glucose + 10% dialyzed FBS, 0.00702 µM
[26] = RPMI 5 mM glucose + 10% dialyzed FBS, 0.0211 µM
[27] = RPMI 5 mM glucose + 10% dialyzed FBS, 0.0632 µM
[28] = RPMI 5 mM glucose + 10% dialyzed FBS, 0.19 µM
[29] = RPMI 5 mM glucose + 10% dialyzed FBS, 0.569 µM
[30] = RPMI 5 mM glucose + 10% dialyzed FBS, 1.71 µM
[31] = RPMI 5 mM glucose + 10% dialyzed FBS, 5.12 µM
[32] = RPMI 5 mM glucose + 10% dialyzed FBS, 15.4 µM
[33] = RPMI 5 mM glucose + 10% dialyzed FBS, 46.1 µM

For `CO/N=C(/C(=O)N[C@@H]1C(=O)N2C(C(=O)O)=C(Cn3ccc(=N)n3CCO)CS[C@H]12)c1csc(N)n1`, the cell viability [1] was 121%, the cell viability [2] was 123% and the cell viability [3] was 125%. The cell viability [4] was 136%, the cell viability [5] was 135% and the cell viability [6] was 126%. The cell viability [7] was 134%, the cell viability [8] was 126% and the cell viability [9] was 141%. The cell viability [10] was 137% and the cell viability [11] was 125%.
With `C[N]1C=NC=C1[C@@](N)(C2=CC=C(Cl)C=C2)C3=CC=C4N(C)C(=O)\C=C(\C5=CC=CC(=C5)Cl)C4=C3` the cell viability [1] was 111%, the cell viability [2] was 110% and the cell viability [3] was 113%. For the same compound, the cell viability [4] was 106%, the cell viability [5] was 109% and the cell viability [6] was 97.4%. It also gave a cell viability [7] of 82.4%, a cell viability [8] of 79.2% and a cell viability [9] of 73%. For the same compound, the cell viability [10] was 50.1%, the cell viability [11] was 27.9% and the cell viability [12] was 110%. It also gave a cell viability [13] of 113%, a cell viability [14] of 113% and a cell viability [15] of 106%. For the same compound, the cell viability [16] was 100%, the cell viability [17] was 81.2% and the cell viability [18] was 82.9%. It also gave a cell viability [19] of 69%, a cell viability [20] of 67.7% and a cell viability [21] of 42.1%. The cell viability [22] was 32.3%, the cell viability [23] was 105% and the cell viability [24] was 114%. It also gave a cell viability [25] of 115%, a cell viability [26] of 100% and a cell viability [27] of 107%. The cell viability [28] was 92.2%, the cell viability [29] was 85.5% and the cell viability [30] was 72.8%. For the same compound, the cell viability [31] was 69.6%, the cell viability [32] was 59.9% and the cell viability [33] was 39.3%.
`NC(=O)N1c2ccccc2CC(=O)c2ccccc21` gave a cell viability [1] of 115%, a cell viability [2] of 116% and a cell viability [3] of 121%. The cell viability [4] was 125%, the cell viability [5] was 124% and the cell viability [6] was 138%. For the same compound, the cell viability [7] was 129%, the cell viability [8] was 128% and the cell viability [9] was 132%. For the same compound, the cell viability [10] was 127% and the cell viability [11] was 134%.
Compound `FC(F)(F)c1ccc(Nc2nc3cc(Oc4ccnc(-c5ncc(C(F)(F)F)[nH]5)c4)ccc3[nH]2)cc1` has a cell viability [1] of 118%, a cell viability [2] of 111% and a cell viability [3] of 115%. The cell viability [4] was 120%, the cell viability [5] was 122% and the cell viability [6] was 115%. For the same compound, the cell viability [7] was 117%, the cell viability [8] was 123% and the cell viability [9] was 118%. It also gave a cell viability [10] of 112%, a cell viability [11] of 71.3% and a cell viability [12] of 119%. The cell viability [13] was 119%, the cell viability [14] was 127% and the cell viability [15] was 123%. For the same compound, the cell viability [16] was 130%, the cell viability [17] was 122% and the cell viability [18] was 127%. It also gave a cell viability [19] of 137%, a cell viability [20] of 130% and a cell viability [21] of 111%. For the same compound, the cell viability [22] was 67.8%.
`O=C(NC1CCNCC1)c1n[nH]cc1NC(=O)c1c(Cl)cccc1Cl` gave a cell viability [1] of 106%, a cell viability [2] of 111% and a cell viability [3] of 117%. The cell viability [4] was 111%, the cell viability [5] was 115% and the cell viability [6] was 111%. For the same compound, the cell viability [7] was 112%, the cell viability [8] was 54.1% and the cell viability [9] was 11.6%. For the same compound, the cell viability [10] was 12.2%, the cell viability [11] was 9.17% and the cell viability [12] was 114%. The cell viability [13] was 115%, the cell viability [14] was 112% and the cell viability [15] was 109%. It also gave a cell viability [16] of 113%, a cell viability [17] of 121% and a cell viability [18] of 111%. For the same compound, the cell viability [19] was 50.9%, the cell viability [20] was 12.9% and the cell viability [21] was 12.1%. For the same compound, the cell viability [22] was 7.33%, the cell viability [23] was 114% and the cell viability [24] was 112%. It also gave a cell viability [25] of 109%, a cell viability [26] of 115% and a cell viability [27] of 116%. For the same compound, the cell viability [28] was 112%, the cell viability [29] was 103% and the cell viability [30] was 79.1%. It also gave a cell viability [31] of 13.7%, a cell viability [32] of 13.8% and a cell viability [33] of 10.1%.

Source: the supplement of paper PMC11451515
